Consider eight compounds from US20170008888A1 (KYORIN PHARMACEUTICAL CO., LTD., priority 2014, published 2017).

Holding throughout (type): binding
In one experiment the test system is AMPKa1 or AMPKa2. In words: Probe-based (AX9989) kinase profiling in Jurkat lysate: AMPKa1 or AMPKa2. An outline of the steps:
(§1)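 Gel-filtered Jurkat lysate (HEPES pH 7.5, 20 mM MnCl2, 5 mg/ml) was pre-incubated 15 min with compound at room temperature, then labelled with 5 μM acyl-phosphate ATP probe AX9989. Tryptic probe-labelled active-site peptides were streptavidin-captured and quantified by LC/MS. Percent inhibition reflected the decrease in labelled-peptide intensity versus no compound.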

The target of another experiment is T1, AurA (Homo sapiens, UniProt O14965).
T1 construct: screened for activity against several kinases in Jurkat cells; endogenous in cells; host or cells: Jurkat cell lysate
T1 sequence (O14965 1-403): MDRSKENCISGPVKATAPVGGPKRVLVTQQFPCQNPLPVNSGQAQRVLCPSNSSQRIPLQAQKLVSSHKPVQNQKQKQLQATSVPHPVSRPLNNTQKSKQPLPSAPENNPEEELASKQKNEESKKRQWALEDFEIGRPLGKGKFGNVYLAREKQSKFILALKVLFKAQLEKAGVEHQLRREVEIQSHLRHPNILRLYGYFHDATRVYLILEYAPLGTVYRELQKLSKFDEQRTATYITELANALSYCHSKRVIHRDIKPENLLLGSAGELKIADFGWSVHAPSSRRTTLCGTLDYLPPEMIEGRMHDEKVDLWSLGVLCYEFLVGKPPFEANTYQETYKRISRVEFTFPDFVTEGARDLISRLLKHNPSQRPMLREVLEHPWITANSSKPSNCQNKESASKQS
As to the kind of experiment: Probe-based (AX9989) kinase profiling in Jurkat lysate: AurA. The following applies: read-out: Kinase inhibition % at indicated screening concentration: AurA; for inhibition at 1 µM: screening concentration 1.0 μM; for inhibition at 0.1 µM: screening concentration 0.1 μM. An outline of the steps:
as §1

The target in the next experiment is T2, TAO2 (Homo sapiens, UniProt Q9UL54).
T2 construct: screened for activity against several kinases in Jurkat cells; endogenous in cells; host or cells: Jurkat cell lysate
T2 sequence (Q9UL54 1-1235): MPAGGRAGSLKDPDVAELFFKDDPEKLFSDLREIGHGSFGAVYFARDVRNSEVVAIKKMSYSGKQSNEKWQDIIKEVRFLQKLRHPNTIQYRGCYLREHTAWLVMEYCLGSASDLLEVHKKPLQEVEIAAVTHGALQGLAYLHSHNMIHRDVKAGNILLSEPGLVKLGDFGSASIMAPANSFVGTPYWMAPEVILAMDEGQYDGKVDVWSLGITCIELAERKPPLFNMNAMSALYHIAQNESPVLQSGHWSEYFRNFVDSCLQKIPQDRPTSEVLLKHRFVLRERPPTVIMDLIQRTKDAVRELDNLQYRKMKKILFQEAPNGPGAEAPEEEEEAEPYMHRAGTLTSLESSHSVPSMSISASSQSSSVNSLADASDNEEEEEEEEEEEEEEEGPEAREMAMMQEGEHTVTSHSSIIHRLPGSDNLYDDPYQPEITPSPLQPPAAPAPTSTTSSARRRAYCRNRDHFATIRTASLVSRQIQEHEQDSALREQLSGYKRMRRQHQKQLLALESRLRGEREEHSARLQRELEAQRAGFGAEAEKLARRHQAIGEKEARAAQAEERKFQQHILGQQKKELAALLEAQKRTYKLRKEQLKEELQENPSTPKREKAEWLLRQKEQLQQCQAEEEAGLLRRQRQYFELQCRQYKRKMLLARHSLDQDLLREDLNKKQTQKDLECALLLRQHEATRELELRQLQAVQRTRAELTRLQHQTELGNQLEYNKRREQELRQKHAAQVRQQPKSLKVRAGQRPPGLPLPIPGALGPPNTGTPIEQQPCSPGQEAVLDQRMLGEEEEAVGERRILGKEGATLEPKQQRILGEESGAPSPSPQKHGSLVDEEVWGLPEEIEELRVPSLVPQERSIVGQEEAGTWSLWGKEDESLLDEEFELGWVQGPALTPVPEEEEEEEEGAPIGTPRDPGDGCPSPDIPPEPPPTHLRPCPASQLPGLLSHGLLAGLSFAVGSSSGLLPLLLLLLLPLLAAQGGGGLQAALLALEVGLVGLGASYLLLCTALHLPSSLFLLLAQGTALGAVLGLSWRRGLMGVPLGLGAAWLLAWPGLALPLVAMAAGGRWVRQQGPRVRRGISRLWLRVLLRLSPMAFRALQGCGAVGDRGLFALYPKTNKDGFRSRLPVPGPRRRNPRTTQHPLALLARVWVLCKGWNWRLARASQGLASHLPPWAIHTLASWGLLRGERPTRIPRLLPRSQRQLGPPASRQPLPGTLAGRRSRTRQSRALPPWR
In words: Probe-based (AX9989) kinase profiling in Jurkat lysate: TAO2. Particulars: read-out: Kinase inhibition % at indicated screening concentration: TAO2; for inhibition at 1 µM: screening concentration 1.0 μM; for inhibition at 0.1 µM: screening concentration 0.1 μM. An outline of the steps:
as §1

A further experiment deals with T3, ERK5 (Homo sapiens, UniProt Q13164).
T3 construct: screened for activity against several kinases in Jurkat cells; endogenous in cells; host or cells: Jurkat cell lysate
T3 sequence (Q13164 whole entry): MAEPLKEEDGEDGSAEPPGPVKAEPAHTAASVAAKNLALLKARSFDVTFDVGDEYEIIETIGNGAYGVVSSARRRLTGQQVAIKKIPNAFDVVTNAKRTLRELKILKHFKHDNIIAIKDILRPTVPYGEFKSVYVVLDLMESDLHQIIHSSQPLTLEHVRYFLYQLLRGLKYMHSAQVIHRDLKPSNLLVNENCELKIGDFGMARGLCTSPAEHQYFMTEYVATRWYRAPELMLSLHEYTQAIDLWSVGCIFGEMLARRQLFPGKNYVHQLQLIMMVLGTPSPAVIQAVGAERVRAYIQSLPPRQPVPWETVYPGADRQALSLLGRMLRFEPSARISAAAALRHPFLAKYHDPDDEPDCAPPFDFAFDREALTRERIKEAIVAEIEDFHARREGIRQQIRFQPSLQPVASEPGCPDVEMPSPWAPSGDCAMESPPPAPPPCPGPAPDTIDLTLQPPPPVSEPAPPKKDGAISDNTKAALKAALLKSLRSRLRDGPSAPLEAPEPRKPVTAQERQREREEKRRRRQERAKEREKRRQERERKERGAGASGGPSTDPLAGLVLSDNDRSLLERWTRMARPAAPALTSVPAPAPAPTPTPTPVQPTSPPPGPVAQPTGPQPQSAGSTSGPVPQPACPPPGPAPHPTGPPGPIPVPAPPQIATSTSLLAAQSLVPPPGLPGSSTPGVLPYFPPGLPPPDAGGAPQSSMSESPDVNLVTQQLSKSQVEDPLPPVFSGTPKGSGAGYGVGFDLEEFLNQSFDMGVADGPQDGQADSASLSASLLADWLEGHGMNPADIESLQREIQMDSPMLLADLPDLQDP
In words: Probe-based (AX9989 acyl phosphate ATP probe) kinase profiling in Jurkat lysate: ERK5. The following applies: for IC50: calculated from percent inhibition of AX9989 labeling and the screening concentration, Jurkat lysate; for inhibition at 1 µM: screening concentration 1.0 μM; for inhibition at 1 µM / inhibition at 0.1 µM: read-out: Kinase inhibition % at indicated screening concentration: ERK5; for inhibition at 0.1 µM: screening concentration 0.1 μM. An outline of the steps:
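Gel-filtered Jurkat lysate (5 mg/ml, 20 mM MnCl2) preincubated 15 min at room temperature with compound, then labelled with 5 μM AX9989 acyl phosphate ATP probe. Probe-labelled ERK5 active-site peptides quantified by LC/MS after trypsin digestion and streptavidin capture; IC50 calculated from percent inhibition at the screening concentration.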

Regarding `CCOc1cc(C(=O)N2CCN(CCOCCO)CC2)ccc1Nc1cc2c(cn1)N(C)C(=O)c1ccccc1N2C` [Compound 6], in the experiment with AMPKa1 or AMPKa2 (screening concentration 1.0 μM), the “Kinase inhibition % at indicated screening concentration: AMPKa1 or AMPKa2” value (shortened to “Kinase inhibition %”) is “E (E is ≦35%)”. Further, the inhibition at 1 µM on AurA is no more than 35%; at TAO2 it was no more than 35%; at ERK5 it was greater than 90%. On ERK5, the IC50 is no more than 50 nM.

In the case of `CCOc1cc(C(=O)N2CCCN(C)CC2)ccc1Nc1cc2c(cn1)N(C)C(=O)c1ccccc1N2C` [Compound 8], the “Kinase inhibition %” value in the experiment with AMPKa1 or AMPKa2 (screening concentration 1.0 μM) was “E (E is ≦35%)”. Further, the inhibition at 1 µM at AurA was no more than 35%; on TAO2, no more than 35%; on ERK5, greater than 90%. Besides, the IC50 at ERK5 was 101 to 500 nM.

As for `CCOc1cc(C(=O)N2CCN(CC3CC3)CC2)ccc1Nc1cc2c(cn1)N(C)C(=O)c1ccccc1N2C` [Compound 10], the “Kinase inhibition %” value in the experiment with AMPKa1 or AMPKa2 (screening concentration 0.1 μM) is recorded as “E (E is ≦35%)”. The inhibition at 0.1 µM is no more than 35% on AurA, no more than 35% on TAO2 and 75 to 90% at ERK5. Further, the IC50 on ERK5 was no more than 50 nM.

For the compound `CCOc1cc(C(=O)N2CCC(N3CCCC3)CC2)ccc1Nc1cc2c(cn1)N(C)C(=O)c1ccccc1N2C` [Compound 46, 3-(2-Ethoxy-4-(4-(pyrrolidin-1-yl)piperidine-1-carbonyl)phenylamino)-5,11-dimethyl-5H-benzo[e]pyrido[3,4-b][1,4]diazepin-10(11H)-one], the “Kinase inhibition %” value with AMPKa1 or AMPKa2 (screening concentration 1.0 μM) is “E (E is ≦35%)”. Further, the inhibition at 1 µM is no more than 35% at AurA, no more than 35% on TAO2 and greater than 90% on ERK5. Besides, the IC50 on ERK5 was no more than 50 nM.

For `Cc1cc(CN2CC[C@@H](N3CCCC3)C2)ccc1Nc1cc2c(cn1)N(C)C(=O)c1ccccc1N2C` [Compound 49], in the experiment on AMPKa1 or AMPKa2 (screening concentration 0.1 μM), the “Kinase inhibition %” value is given as “E (E is ≦35%)”. Besides, the values for the inhibition at 0.1 µM on AurA, on TAO2 and on ERK5 were no more than 35%, no more than 35% and greater than 90%, respectively. For the same compound, the IC50 on ERK5 is no more than 50 nM.

On to `CCOc1cc(C(N)=O)ccc1Nc1cc2c(cn1)N(C)C(=O)c1ccccc1N2C` [Compound 51], for which the “Kinase inhibition %” value in the experiment with AMPKa1 or AMPKa2 (screening concentration 0.1 μM) is “E (E is ≦35%)”. Besides, the inhibition at 0.1 µM at AurA was no more than 35%; at TAO2 it was no more than 35%; on ERK5 it was 35 to 50%. Besides, at ERK5, the IC50 was 101 to 500 nM.

As to `CCOc1cc(C(=O)N2CCC(O)CC2)ccc1Nc1cc2c(cn1)N(C)C(=O)c1ccccc1N2C` [Compound 52], the “Kinase inhibition %” value in the experiment on AMPKa1 or AMPKa2 (screening concentration 1.0 μM) is reported as “E (E is ≦35%)”. In addition, the results for the inhibition at 1 µM at AurA, on TAO2 and on ERK5 were no more than 35%, no more than 35% and greater than 90%, respectively. Besides, the IC50 on ERK5 was 50 to 100 nM.

On to `CN1C(=O)c2occc2N(C)c2cc(N[C@H]3CC[C@H](N)CC3)ncc21` [Compound 53], for which the “Kinase inhibition %” value in the experiment on AMPKa1 or AMPKa2 (screening concentration 1.0 μM) is “E (E is ≦35%)”. For the same compound, the inhibition at 1 µM on AurA was no more than 35%; at TAO2 it was no more than 35%; at ERK5, 75 to 90%. In addition, the IC50 at ERK5 was 101 to 500 nM.
